The source of these data is patent US10647675B2 (priority 2015, dated 2020).

The structures appear in SMILES notation. Values after ≈ are worked out from the molar mass of the structure shown. A value given as a limit tells only on which side of the number the result lay.

In general, MIC refers to the lowest concentration that inhibits growth of the organism.

Assay [1] deals with Trichophyton mentagrophytes SM-110. Briefly: Antifungal activity evaluation test: minimum inhibitory concentration (MIC), broth dilution by reference to CLSI M38-A2. The note with it: SM110, read-out: MIC (T. menta.). The class given is cell-based. The procedure, abridged:
(§1)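 Broth microdilution after CLSI M38-A2: 2-fold DMSO dilution series in MOPS-buffered RPMI 1640 pH 7.0, inoculum 2×10^3 cells/mL final. Incubated 35° C for 4 days; MIC (μg/mL) is lowest concentration giving visually ≥80% growth inhibition versus growth control.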

Assay [2] concerns Trichophyton rubrum KD-1130. The description is as above. The assay is classed as cell-based. The note with it: KD1130, read-out: MIC (T. rubrum). The procedure, abridged:
as §1

Regarding `FC(F)(F)c1ccc(Nc2ncncc2-c2cccc3ccnn23)cc1` [I-362, 5-(pyrazolo[1,5-a]pyridin-7-yl)-N-[4-(trifluoromethyl)phenyl]pyrimidin-4-amine], the MIC in assay [1] and in assay [2] was ≤ 0.1 µg/mL throughout.

In the case of `COc1cc(-c2cncnc2Oc2ccc(C(F)F)nc2)c(F)cc1F` [I-363, 5-(2,4-difluoro-5-methoxyphenyl)-4-{[6-(difluoromethyl)pyridin-3-yl]oxy}pyrimidine], the MIC in assay [1] and in assay [2] was ≤ 0.1 µg/mL each time.

Regarding `COc1ccccc1-c1cccnc1Oc1ccc(N(C)C)nc1` [I-365], the values for the minimum inhibitory concentration (MIC) in assay [1] and in assay [2] were ≤ 0.1 µg/mL and 0.2 to 0.78 µg/mL (≈ 0.622 to 2.43 µM), respectively.

With `COc1cc(F)ccc1-c1cccnc1Oc1ccc(Cl)nc1` [I-366], the MIC in assay [1] and in assay [2] was ≤ 0.1 µg/mL each time.

With `CCN(C)c1ccc(Oc2ncccc2-c2ccc(F)cc2OC)cn1` [I-367, N-ethyl-5-{[3-(4-fluoro-2-methoxyphenyl)pyridin-2-yl]oxy}-N-methylpyridin-2-amine], the minimal inhibitory concentration (MIC) in assay [1] and in assay [2] was ≤ 0.1 µg/mL each time.

As for `CCCN(C)c1ccc(Oc2ncccc2-c2ccc(F)cc2OC)cn1` [I-368, 5-{[3-(4-fluoro-2-methoxyphenyl)pyridin-2-yl]oxy}-N-methyl-N-propylpyridin-2-amine], the MIC in assay [1] and in assay [2] was ≤ 0.1 µg/mL in each case.

For the compound `COc1cc(F)ccc1-c1cccnc1Oc1cnc(N(C)C)c(C)c1` [I-369], the MIC in assay [1] and in assay [2] was ≤ 0.1 µg/mL in each case.

Consider `COc1ccccc1-c1cccnc1Oc1ccc(OC(F)F)nc1` [I-370, 2-{[6-(difluoromethoxy)pyridin-3-yl]oxy}-3-(2-methoxyphenyl)pyridine], for which the MIC in assay [1] and in assay [2] was ≤ 0.1 µg/mL in each case.

`COc1ccccc1-c1cccnc1Oc1ccc(CNc2ccccc2)nc1` [I-371, N-[(5-{[3-(2-methoxyphenyl)pyridin-2-yl]oxy}pyridin-2-yl)methyl]aniline]: the MIC in assay [1] and in assay [2] was ≤ 0.1 µg/mL throughout.

Regarding `COc1cccc(-c2cccnc2Oc2ccc(C(F)(F)F)nc2)n1` [I-374, 6-methoxy-2′-{[6-(trifluoromethyl)pyridin-3-yl]oxy}-2,3′-bipyridine], the MIC in assay [1] and in assay [2] was ≤ 0.1 µg/mL throughout.

Turning to `FC(F)(F)c1ccc(Oc2ncccc2-c2cccc3cc(Cl)nn23)cn1` [I-375, 2-chloro-7-(2-{[6-(trifluoromethyl)pyridin-3-yl]oxy}pyridin-3-yl)pyrazolo[1,5-a]pyridine], the MIC in assay [1] and in assay [2] was ≤ 0.1 µg/mL throughout.

For the compound `Cc1nsc(-c2cccnc2Oc2ccc(C(F)(F)F)nc2)c1Br` [I-377, 4-bromo-3-methyl-5-(2-{[6-(trifluoromethyl)pyridin-3-yl]oxy}pyridin-3-yl)isothiazole], the minimum inhibitory concentration (MIC) in assay [1] and in assay [2] was ≤ 0.1 µg/mL in each case.

For `C=C(C)c1ncc(Oc2ncccc2-c2ccc(F)cc2OC)cn1` [I-378, 5-{[3-(4-fluoro-2-methoxyphenyl)pyridin-2-yl]oxy}-2-(prop-1-en-2-yl)pyrimidine], the MIC in assay [1] and in assay [2] was ≤ 0.1 µg/mL in each case.

Consider `COc1cc(F)ccc1-c1cccnc1Oc1cnc(C2(C)CC2)nc1` [I-379, 5-{[3-(4-fluoro-2-methoxyphenyl)pyridin-2-yl]oxy}-2-(1-methylcyclopropyl)pyrimidine], for which the MIC in assay [1] and in assay [2] was ≤ 0.1 µg/mL throughout.

As for `COc1ccccc1-c1cccnc1Oc1cnc(OCc2ccccc2)nc1` [I-380, 2-(benzyloxy)-5-{[3-(2-methoxyphenyl)pyridin-2-yl]oxy}pyrimidine], the MIC in assay [1] and in assay [2] was ≤ 0.1 µg/mL each time.

Turning to `COc1ncccc1-c1cccnc1Oc1cnc(N(C)Cc2ccccc2)nc1` [I-381, N-benzyl-5-{[2′-methoxy-(3,3′-bipyridin)-2-yl]oxy}-N-methylpyrimidin-2-amine], the minimum inhibitory concentration (MIC) in assay [1] and in assay [2] was ≤ 0.1 µg/mL each time.

`CCCCN(C)c1ncc(Oc2ncccc2-c2cnccc2OC)cn1` [I-384]: the minimal inhibitory concentration (MIC) in assay [1] and in assay [2] was ≤ 0.1 µg/mL throughout.

On to `CCOC(=O)CN(C)c1ncc(Oc2ncccc2-c2ccc(F)cc2OC)cn1` [I-386, ethyl 2-[(5-{[3-(4-fluoro-2-methoxyphenyl)pyridin-2-yl]oxy}-pyrimidin-2-yl)(methyl)amino]acetate], for which the MIC in assay [1] and in assay [2] was ≤ 0.1 µg/mL throughout.

For `COC(=O)CN(C)c1ncc(Oc2ncccc2-c2ccccc2OC)cn1` [I-387, methyl 2-[(5-{[3-(2-methoxyphenyl)pyridin-2-yl]oxy}pyrimidin-2-yl)(methyl)amino]acetate], the minimum inhibitory concentration (MIC) in assay [1] and in assay [2] was ≤ 0.1 µg/mL in each case.

For `CCOCC(C)(C)c1ccc(Oc2ncccc2-c2cccnc2OC)cc1` [I-388, 2-[4-(1-ethoxy-2-methylpropan-2-yl)phenoxy]-2′-methoxy-3,3′-bipyridine], the MIC in assay [1] and in assay [2] was ≤ 0.1 µg/mL in each case.

In the case of `C#Cc1ccc(Oc2ncccc2-c2cccnc2OC)cc1` [I-390, 2-(4-ethynylphenoxy)-2′-methoxy-3,3′-bipyridine], the minimum inhibitory concentration (MIC) in assay [1] and in assay [2] was ≤ 0.1 µg/mL throughout.

Consider `CCc1ccc(Oc2ncccc2-c2cnccc2OC)cc1F` [I-392, 2-(4-ethyl-3-fluorophenoxy)-4′-methoxy-3,3′-bipyridine], for which the minimum inhibitory concentration (MIC) in assay [1] and in assay [2] was ≤ 0.1 µg/mL each time.

On to `CCc1ccc(Oc2ncccc2-c2cnccc2OC)c(F)c1` [I-394, 2-(4-ethyl-2-fluorophenoxy)-4′-methoxy-3,3′-bipyridine], for which the MIC in assay [1] and in assay [2] was ≤ 0.1 µg/mL throughout.

On to `CCOCCc1ccc(Oc2ncccc2-c2cccnc2OC)cc1` [I-396, 2-[4-(2-ethoxyethyl)phenoxy]2′-methoxy-3,3′-bipyridine], for which the MIC in assay [1] and in assay [2] was ≤ 0.1 µg/mL each time.

Turning to `COc1ncccc1-c1cccnc1Oc1ccc(CCOC(C)=O)cc1` [I-397, 4-{[(2′-methoxy)-(3,3′-bipyridin)-2-yl]oxy}phenethyl acetate], the MIC in assay [1] and in assay [2] was ≤ 0.1 µg/mL throughout.

On to `COc1ncccc1-c1cccnc1Oc1ccc(CCOC(=O)N(C)C)cc1` [I-398, 4-{[(2′-methoxy-(3,3′-bipyridin)-2-yl]oxy}phenethyl dimethylcarbamate], for which the MIC in assay [1] and in assay [2] was ≤ 0.1 µg/mL in each case.

In the case of `COc1ncccc1-c1cccnc1Oc1ccc(CCn2cccn2)cc1` [I-400, 2-{4-[2-(1H-pyrazol-1-yl)ethyl]phenoxy}-2′-methoxy-3,3′-bipyridine], the minimal inhibitory concentration (MIC) in assay [1] and in assay [2] was ≤ 0.1 µg/mL in each case.

On to `COc1ncccc1-c1cccnc1Oc1ccc(CCn2cc(C)cn2)cc1` [I-401, 2-methoxy-2′-{4-[2-(4-methyl-1H-pyrazol-1-yl)ethyl]phenoxy}-3,3′-bipyridine], for which the MIC in assay [1] and in assay [2] was ≤ 0.1 µg/mL in each case.

In the case of `CCn1cc(CCc2ccc(Oc3ncccc3-c3cccnc3OC)cc2)cn1` [I-404, 2-{4-[2-(1-ethyl-1H-pyrazol-4-yl)ethyl]phenoxy}-2′-methoxy-3,3′-bipyridine], the MIC in assay [1] and in assay [2] was ≤ 0.1 µg/mL throughout.

On to `C#CCCc1ccc(Oc2ncccc2-c2cccnc2OC)cc1` [I-407, 2-[4-(but-3-yn-1-yl)phenoxy]-2′-methoxy-3,3′-bipyridine], for which the MIC in assay [1] and in assay [2] was ≤ 0.1 µg/mL throughout.

Regarding `COc1ncccc1-c1cccnc1Oc1ccc(CCc2cc(C)no2)cc1` [I-408, 5-(4-{[2′-methoxy-(3,3′-bipyridin)-2-yl]oxy}phenethyl)-3-methylisoxazole], the minimal inhibitory concentration (MIC) in assay [1] and in assay [2] was ≤ 0.1 µg/mL throughout.

Consider `COC(=O)CCc1ccc(Oc2ncccc2-c2cccnc2OC)cc1` [I-409], for which the minimum inhibitory concentration (MIC) in assay [1] and in assay [2] was ≤ 0.1 µg/mL each time.

On to `COc1ncccc1-c1cccnc1Oc1ccc(CCc2nc(C)no2)cc1` [I-411], for which the MIC in assay [1] and in assay [2] was ≤ 0.1 µg/mL in each case.

For the compound `CCOCCc1ccc(Oc2ncccc2-c2cccc3ccnn23)cc1` [I-412, 7-{2-[4-(2-ethoxyethyl)phenoxy]pyridin-3-yl}pyrazolo[1,5-a]pyridine], the MIC in assay [1] and in assay [2] was ≤ 0.1 µg/mL throughout.

For the compound `COCC(F)(F)c1ccc(Oc2ncccc2-c2cccc3ccnn23)cc1` [I-413, 7-{2-[4-(1,1-difluoro-2-methoxyethyl)phenoxy]pyridin-3-yl}pyrazolo[1,5-a]pyridine], the minimum inhibitory concentration (MIC) in assay [1] and in assay [2] was ≤ 0.1 µg/mL each time.

As for `CCOC(=O)c1ccc(Oc2ncccc2-c2cnccc2Cl)cc1` [I-414], the MIC in assay [1] and in assay [2] was ≤ 0.1 µg/mL each time.

For the compound `CCOC(=O)c1ccc(Oc2ncccc2-c2cnccc2OCC)cc1` [I-415, ethyl 4-{[4′-ethoxy-(3,3′-bipyridin)-2-yl]oxy}benzoate], the MIC in assay [1] and in assay [2] was ≤ 0.1 µg/mL each time.

As to `CCOC(=O)c1ccc(Oc2ncccc2-c2cnccc2CC)cc1` [I-416], the MIC in assay [1] and in assay [2] was ≤ 0.1 µg/mL each time.

Consider `COc1ccncc1-c1cccnc1Oc1ccc(C(=O)OC(C)C)cc1` [I-418], for which the minimal inhibitory concentration (MIC) in assay [1] and in assay [2] was ≤ 0.1 µg/mL throughout.

In the case of `CCOC(=O)c1ccc(Oc2ncccc2-c2cnccc2C)cc1` [I-419], the MIC in assay [1] and in assay [2] was ≤ 0.1 µg/mL throughout.

Take `Cc1noc(-c2ccc(Oc3ncccc3-c3cnccc3C)cc2)n1` [I-421]: the MIC in assay [1] and in assay [2] was ≤ 0.1 µg/mL throughout.

Take `CC(=O)c1ccc(Oc2ncccc2-c2cnccc2C)cc1` [I-422]: the MIC in assay [1] and in assay [2] was 0.2 to 0.78 µg/mL (≈ 0.657 to 2.56 µM) throughout.

Consider `Cc1ncc(-c2ccc(Oc3ncccc3-c3cnccc3C)cc2)o1` [I-423], for which the MIC in assay [1] and in assay [2] was ≤ 0.1 µg/mL in each case.

Turning to `CC(=O)CC(=O)c1ccc(Oc2ncccc2-c2cnccc2C)cc1` [I-424], the MIC was 0.2 to 0.78 µg/mL (≈ 0.577 to 2.25 µM) in assay [1] and ≤ 0.1 µg/mL in assay [2].

For `Cc1cc(-c2ccc(Oc3ncccc3-c3cnccc3C)cc2)on1` [I-425], the MIC in assay [1] and in assay [2] was ≤ 0.1 µg/mL each time.
